Experimental data from paper PMC10165273, “Itch receptor MRGPRX4 interacts with the receptor activity–modifying proteins” (The Journal of Biological Chemistry, 2023).
Where “and” joins values, the source holds several entries; their conditions need not be identical. Equal values may be shown once. Read-outs that look alike come from different tables or passages of the source.

Molecular target: T1, MRGPRX4 + RAMP1 (Homo sapiens, UniProt Q96LA9)
T1 construct: expressed in transfected cells; host or cells: HEK293T
Assay: IP1 accumulation, MRGPRX4 coexpressed with RAMP1
Type: cell-based
Design: key to IP1 Basal / response to agonist, X4:ramp1.I:1 / response to agonist, X4:ramp1.I:2 / response to agonist, X4:ramp1.I:0.25 / response to agonist, X4:ramp1.I:0.5: % IP1; unstimulated mock = 0%, fully stimulated MRGPRX4 = 100%; potency: unit not given here
Conditions: for activation at 100 µM / activation at 20 µM / activation at 4 µM / activation at 0.8 µM / activation at […] / activation at 0.032 µM: 2 h
Protocol: HEK293T cells were transfected with 1 pg/cell of MRGPRX4 DNA, and the amount of DNA was kept constant at 2 pg/cell with pcDNA3.1(+) empty vector, unless otherwise specified. Twenty four hours after transfection, IP1 assay was performed as previously described ([51]). When applicable, cells were treated with 1 μM YM254890 (YM) or different concentrations of U73122 for 1 h prior to addition of agonist or buffer. After incubation for 2 h, HTRF reagents and IP1 calibration standards were added and incubated for 2 h in the dark at room temperature. Time-resolved fluorescence signals were read on the BioTek Synergy NEO-TRF Hybrid multi-mode reader (BioTek Instruments). All data were carried out in three independent experiments with three technical replicate each.
For a homogenous transfection of MRGPRX4, a master mix of MRGPRX4 DNA was made prior to addition of the RAMP DNA. […]
Data reduction, standard calibration, and transformation of HTRF data were performed as previously described ([51]). Normalized IP1 values were calculated relative to the unstimulated mock-transfected cells (set to 0%) and fully stimulated MRGPRX4 (alone if applicable) (set to 100%).

T1 sequence (Q96LA9 whole entry): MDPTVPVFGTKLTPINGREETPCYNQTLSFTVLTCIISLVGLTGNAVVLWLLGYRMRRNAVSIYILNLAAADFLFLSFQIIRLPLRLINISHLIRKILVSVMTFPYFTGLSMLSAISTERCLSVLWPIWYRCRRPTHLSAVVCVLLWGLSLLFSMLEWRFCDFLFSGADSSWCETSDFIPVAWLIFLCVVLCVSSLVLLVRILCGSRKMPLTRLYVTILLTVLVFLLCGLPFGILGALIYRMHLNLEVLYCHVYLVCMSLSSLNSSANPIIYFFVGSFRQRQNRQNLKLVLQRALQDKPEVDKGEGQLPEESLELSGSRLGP

CC(C)[C@H]1CC[C@H](C(=O)N[C@H](Cc2ccccc2)C(=O)O)CC1 [Nateglinide]
activation at 100 µM (log [nateglinide] (M) -4, MRGPRX4+RAMP10.5pg 1:0.5, Supplementary Figure 5d, read-out: IP1 accumulation (normalized)): 99.2% | activation at 20 µM (log [nateglinide] (M) -4.69897, MRGPRX4+RAMP10.5pg 1:0.5, Supplementary Figure 5d, read-out: IP1 accumulation (normalized)): 78.1% | activation at 20 µM (log [nateglinide] (M) -4.69897, MRGPRX4+RAMP1 0.75pg 1:0.75, Supplementary Figure 5d, read-out: IP1 accumulation (normalized)): 84.8% | activation at 20 µM (log [nateglinide] (M) -4.69897, MRGPRX4+RAMP1 1pg 1:1, Supplementary Figure 5d, 5g, read-out: IP1 accumulation (normalized)): 72.1% | activation at 4 µM (log [nateglinide] (M) -5.39794, MRGPRX4+RAMP10.5pg 1:0.5, Supplementary Figure 5d, read-out: IP1 accumulation (normalized)): 49.7% | activation at 4 µM (log [nateglinide] (M) -5.39794, MRGPRX4+RAMP1 0.75pg 1:0.75, Supplementary Figure 5d, read-out: IP1 accumulation (normalized)): 44.1% | activation at 4 µM (log [nateglinide] (M) -5.39794, MRGPRX4+RAMP1 1pg 1:1, Supplementary Figure 5d, 5g, read-out: IP1 accumulation (normalized)): 39.2% | activation at 0.8 µM (log [nateglinide] (M) -6.09691, MRGPRX4+RAMP10.5pg 1:0.5, Supplementary Figure 5d, read-out: IP1 accumulation (normalized)): 18.6% | activation at 0.8 µM (log [nateglinide] (M) -6.09691, MRGPRX4+RAMP1 0.75pg 1:0.75, Supplementary Figure 5d, read-out: IP1 accumulation (normalized)): 14.6% | activation at 0.8 µM (log [nateglinide] (M) -6.09691, MRGPRX4+RAMP1 1pg 1:1, Supplementary Figure 5d, 5g, read-out: IP1 accumulation (normalized)): 12.9% | activation at […] (log [nateglinide] (M) -6.79588, MRGPRX4+RAMP10.5pg 1:0.5, Supplementary Figure 5d, read-out: IP1 accumulation (normalized)): 8.57% | activation at […] (log [nateglinide] (M) -6.79588, MRGPRX4+RAMP1 0.75pg 1:0.75, Supplementary Figure 5d, read-out: IP1 accumulation (normalized)): 11.2% | activation at 0.032 µM (log [nateglinide] (M) -7.49485, MRGPRX4+RAMP10.5pg 1:0.5, Supplementary Figure 5d, read-out: IP1 accumulation (normalized)): 7.92% | activation at 0.032 µM (log [nateglinide] (M) -7.49485, MRGPRX4+RAMP1 0.75pg 1:0.75, Supplementary Figure 5d, read-out: IP1 accumulation (normalized)): 8.7% | activation at 0.032 µM (log [nateglinide] (M) -7.49485, MRGPRX4+RAMP1 1pg 1:1, Supplementary Figure 5d, 5g, read-out: IP1 accumulation (normalized)): 7.65% | activation at 100 µM (ratio MRGPRX4:RAMP1 1:0.25, log [Nateglinide] (M) -4, Fig S3a, read-out: IP1 accumulation): 102% | activation at 20 µM (ratio MRGPRX4:RAMP1 1:0.25, log [Nateglinide] (M) -4.69897, Fig S3a, read-out: IP1 accumulation): 76.7% | activation at 4 µM (ratio MRGPRX4:RAMP1 1:0.25, log [Nateglinide] (M) -5.39794, Fig S3a, read-out: IP1 accumulation): 42.2% | activation at 0.8 µM (ratio MRGPRX4:RAMP1 1:0.25, log [Nateglinide] (M) -6.09691, Fig S3a, read-out: IP1 accumulation): 29.4% | activation at […] (ratio MRGPRX4:RAMP1 1:0.25, log [Nateglinide] (M) -6.79588, Fig S3a, read-out: IP1 accumulation): 26.1% | activation at 0.032 µM (ratio MRGPRX4:RAMP1 1:0.25, log [Nateglinide] (M) -7.49485, Fig S3a, read-out: IP1 accumulation): 24% | activation at 100 µM (ratio MRGPRX4:RAMP1 1:1, log [Nateglinide] (M) -4, Fig S3a, read-out: IP1 accumulation): 114% | activation at 20 µM (ratio MRGPRX4:RAMP1 1:1, log [Nateglinide] (M) -4.69897, Fig S3a, read-out: IP1 accumulation): 87.9% | activation at 4 µM (ratio MRGPRX4:RAMP1 1:1, log [Nateglinide] (M) -5.39794, Fig S3a, read-out: IP1 accumulation): 43.7% | activation at 0.8 µM (ratio MRGPRX4:RAMP1 1:1, log [Nateglinide] (M) -6.09691, Fig S3a, read-out: IP1 accumulation): 22.8% | activation at […] (ratio MRGPRX4:RAMP1 1:1, log [Nateglinide] (M) -6.79588, Fig S3a, read-out: IP1 accumulation): 17.6% | activation at 0.032 µM (ratio MRGPRX4:RAMP1 1:1, log [Nateglinide] (M) -7.49485, Fig S3a, read-out: IP1 accumulation): 16% | activation at 100 µM (ratio MRGPRX4:RAMP1 1:2, log [Nateglinide] (M) -4, Fig S3a, read-out: IP1 accumulation): 117% | activation at 20 µM (ratio MRGPRX4:RAMP1 1:2, log [Nateglinide] (M) -4.69897, Fig S3a, read-out: IP1 accumulation): 93.3% | activation at 4 µM (ratio MRGPRX4:RAMP1 1:2, log [Nateglinide] (M) -5.39794, Fig S3a, read-out: IP1 accumulation): 44.8% | activation at 0.8 µM (ratio MRGPRX4:RAMP1 1:2, log [Nateglinide] (M) -6.09691, Fig S3a, read-out: IP1 accumulation): 18.6% | activation at […] (ratio MRGPRX4:RAMP1 1:2, log [Nateglinide] (M) -6.79588, Fig S3a, read-out: IP1 accumulation): 14.5% | activation at 0.032 µM (ratio MRGPRX4:RAMP1 1:2, log [Nateglinide] (M) -7.49485, Fig S3a, read-out: IP1 accumulation): 12.5% | activation at 100 µM (ratio MRGPRX4:RAMP 1:0.5, log [Nateglinide] (M) -4, Fig S3a, read-out: IP1 accumulation): 113% | activation at 20 µM (ratio MRGPRX4:RAMP 1:0.5, log [Nateglinide] (M) -4.69897, Fig S3a, read-out: IP1 accumulation): 93.7% | activation at 4 µM (ratio MRGPRX4:RAMP 1:0.5, log [Nateglinide] (M) -5.39794, Fig S3a, read-out: IP1 accumulation): 46.5% | activation at 0.8 µM (ratio MRGPRX4:RAMP 1:0.5, log [Nateglinide] (M) -6.09691, Fig S3a, read-out: IP1 accumulation): 24.4% | activation at […] (ratio MRGPRX4:RAMP 1:0.5, log [Nateglinide] (M) -6.79588, Fig S3a, read-out: IP1 accumulation): 18.5% | activation at 0.032 µM (ratio MRGPRX4:RAMP 1:0.5, log [Nateglinide] (M) -7.49485, Fig S3a, read-out: IP1 accumulation): 18.7% | Emax (Figure 4a bottom, DNA ratio MRGPRX4:RAMP1 1:0.25, MRGPRX4 alone = 100, read-out: efficacy): 109% | Emax (Figure 4a bottom, DNA ratio MRGPRX4:RAMP1 1:0.5, MRGPRX4 alone = 100, read-out: efficacy): 115% | Emax (Figure 4a bottom, DNA ratio MRGPRX4:RAMP1 1:0.75, MRGPRX4 alone = 100, read-out: efficacy): 118% | Emax (Figure 4a bottom, DNA ratio MRGPRX4:RAMP1 1:1, MRGPRX4 alone = 100, read-out: efficacy): 126% | EC50 (Figure 4a top, DNA ratio MRGPRX4:RAMP1 1:0.25, individual replicates, read-out: potency (converted)): 11.1 µM and 9.42 µM and 15.2 µM | potency (Figure 4a top, DNA ratio MRGPRX4:RAMP1 1:0.5, individual replicates): 5.042 | EC50 (Figure 4a top, DNA ratio MRGPRX4:RAMP1 1:0.5, individual replicates, read-out: potency (converted)): 10.5 µM | EC50 (Figure 4a top, DNA ratio MRGPRX4:RAMP1 1:0.75, individual replicates, read-out: potency (converted)): 10.7 µM and 11.9 µM and 6.64 µM | EC50 (Figure 4a top, DNA ratio MRGPRX4:RAMP1 1:1, individual replicates, read-out: potency (converted)): 9.29 µM and 9.23 µM | response to agonist, X4:ramp1.I:0.25 (Figure 4c-f, agonist 100µM, X4:ramp1 1:0.25, MRGPRX4 = 100): 94.0571 and 91.2695 | response to agonist, X4:ramp1.I:0.5 (Figure 4c-f, agonist 100µM, X4:ramp1 1:0.5, MRGPRX4 = 100): 83.4975 and 100.084 | response to agonist, X4:ramp1.I:1 (Figure 4c-f, agonist 100µM, X4:ramp1 1:1, MRGPRX4 = 100): 101.298 and 92.1048 | response to agonist, X4:ramp1.I:2 (Figure 4c-f, agonist 100µM, X4:ramp1 1:2, MRGPRX4 = 100): 90.9768 and 105.34 | IP1 Basal (MRGPRX4 + RAMP1 0.25 pg (Fig. S3), normalized per agonist): 19.44 | EC50 (MRGPRX4 + RAMP1 0.25 pg (Fig. S3), normalized per agonist, read-out: IP1 EC50): 11.5 µM | Emax (MRGPRX4 + RAMP1 0.25 pg (Fig. S3), normalized per agonist, read-out: IP1 Emax): 112% | Emax (MRGPRX4 + RAMP1 0.25 pg (Fig. S3), normalized per agonist, read-out: IP1 span): 92.4% | IP1 Basal (MRGPRX4 + RAMP1 0.5 pg (Fig. S3), normalized per agonist): 18.21 | EC50 (MRGPRX4 + RAMP1 0.5 pg (Fig. S3), normalized per agonist, read-out: IP1 EC50): 9.56 µM | Emax (MRGPRX4 + RAMP1 0.5 pg (Fig. S3), normalized per agonist, read-out: IP1 Emax): 115% | Emax (MRGPRX4 + RAMP1 0.5 pg (Fig. S3), normalized per agonist, read-out: IP1 span): 96.6% | IP1 Basal (MRGPRX4 + RAMP1 1 pg (Fig. S3), normalized per agonist): 16.52 | EC50 (MRGPRX4 + RAMP1 1 pg (Fig. S3), normalized per agonist, read-out: IP1 EC50): 9.45 µM | Emax (MRGPRX4 + RAMP1 1 pg (Fig. S3), normalized per agonist, read-out: IP1 Emax): 114% | Emax (MRGPRX4 + RAMP1 1 pg (Fig. S3), normalized per agonist, read-out: IP1 span): 97.4% | IP1 Basal (MRGPRX4 + RAMP1 2 pg (Fig. S3), normalized per agonist): 11.98 | EC50 (MRGPRX4 + RAMP1 2 pg (Fig. S3), normalized per agonist, read-out: IP1 EC50): 9.37 µM | Emax (MRGPRX4 + RAMP1 2 pg (Fig. S3), normalized per agonist, read-out: IP1 Emax): 114%
